22 compounds from ChEMBL document CHEMBL1154179, “Analogs of a 4-aminothieno[2,3-d]pyrimidine lead (QB13) as modulators of P-glycoprotein substrate specificity” (Bioorg Med Chem Lett, 2009) can be followed below.

Each structure is given as a SMILES string.

Common to all, as to assay type: cell-based
The target in data set [1] is T1, ATP-dependent translocase ABCB1 (Homo sapiens, UniProt P08183). The experiment in a line: Modulation of P-gp overexpressed in human A2780 cells assessed as daunorubicin accumulation preincubated 15 mins prior to daunorubicin addition measured after 180 mins by fluorescence assay.
Data set [2] deals with T1, ATP-dependent translocase ABCB1. Kind of data set: Modulation of P-gp overexpressed in human A2780 cells assessed as colchicine accumulation at 31.6 uM by MTT assay. The settings on record: a2780, 31.6 µM. On the technique in general: Formazan colour is commonly taken as a measure of viable cells.
For data set [3] the target is unchanged. The experiment in a line: Modulation of P-gp overexpressed in human A2780 cells assessed as vinblastin accumulation at 31.6 uM by MTT assay. Particulars: a2780, 31.6 µM; call rule not given here.
The target is the same in data set [4]. The experiment in a line: Modulation of P-gp overexpressed in human A2780 cells assessed as daunorubicin accumulation at 31.6 uM by MTT assay. The settings on record: a2780, 31.6 µM.

A word on the EC50: it is the concentration needed to bring the measured effect to its halfway point.

T1 sequence (P08183 whole entry): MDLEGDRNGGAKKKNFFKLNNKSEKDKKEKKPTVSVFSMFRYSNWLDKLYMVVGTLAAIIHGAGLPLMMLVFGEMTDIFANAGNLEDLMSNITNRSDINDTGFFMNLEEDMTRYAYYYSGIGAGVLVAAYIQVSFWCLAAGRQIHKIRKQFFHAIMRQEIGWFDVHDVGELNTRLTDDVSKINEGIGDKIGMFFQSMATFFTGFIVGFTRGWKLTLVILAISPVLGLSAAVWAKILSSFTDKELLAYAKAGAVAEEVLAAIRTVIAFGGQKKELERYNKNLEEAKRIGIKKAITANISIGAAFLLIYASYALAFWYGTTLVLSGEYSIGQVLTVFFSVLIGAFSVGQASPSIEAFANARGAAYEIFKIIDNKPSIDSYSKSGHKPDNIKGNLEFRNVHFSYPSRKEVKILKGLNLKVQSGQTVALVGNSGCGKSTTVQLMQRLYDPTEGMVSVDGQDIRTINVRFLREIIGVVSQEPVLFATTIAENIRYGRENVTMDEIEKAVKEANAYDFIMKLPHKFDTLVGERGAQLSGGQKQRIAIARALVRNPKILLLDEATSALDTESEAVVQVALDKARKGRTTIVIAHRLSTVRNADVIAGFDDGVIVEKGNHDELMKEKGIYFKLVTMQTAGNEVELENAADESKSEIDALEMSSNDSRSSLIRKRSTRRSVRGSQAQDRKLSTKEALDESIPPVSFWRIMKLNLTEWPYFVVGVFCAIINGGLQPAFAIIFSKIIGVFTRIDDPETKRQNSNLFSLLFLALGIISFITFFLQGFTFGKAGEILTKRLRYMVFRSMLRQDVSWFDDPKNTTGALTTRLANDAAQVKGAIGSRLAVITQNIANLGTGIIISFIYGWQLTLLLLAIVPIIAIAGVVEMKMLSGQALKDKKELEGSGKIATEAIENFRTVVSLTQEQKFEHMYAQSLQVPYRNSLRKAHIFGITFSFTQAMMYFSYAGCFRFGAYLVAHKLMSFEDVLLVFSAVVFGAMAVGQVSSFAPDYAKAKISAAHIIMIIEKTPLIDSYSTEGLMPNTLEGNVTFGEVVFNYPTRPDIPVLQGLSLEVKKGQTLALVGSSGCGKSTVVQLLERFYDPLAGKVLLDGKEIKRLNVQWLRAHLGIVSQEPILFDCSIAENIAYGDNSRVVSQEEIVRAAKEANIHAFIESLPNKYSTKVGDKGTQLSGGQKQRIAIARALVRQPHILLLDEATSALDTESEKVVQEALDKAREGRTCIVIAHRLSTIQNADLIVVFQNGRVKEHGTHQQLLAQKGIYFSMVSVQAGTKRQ

As for `Nc1nc(SCCO)nc2sc3c(c12)CCCC3`, the EC50 in data set [1] was 1920 nM.
For `CCOC(=O)CSc1nc(N)c2c3c(sc2n1)CCCC3`, the EC50 in data set [1] amounted to 2240 nM. The values for the Activity entry in data set [2], in data set [3] and in data set [4] were “Not Active”, “Active” and “Active”, respectively.
Take `Cc1sc2nc(SCC(=O)c3ccccc3)nc(N)c2c1C`: in data set [1], the EC50 turned out to be 1310 nM.
Consider `Nc1nc(SCC(=O)c2ccccc2)nc2sc3c(c12)CCCC3`, for which the EC50 in data set [1] was found to be 640 nM.
Consider `CCOC(=O)CSc1nc(N)c2c3c(sc2n1)COCC3`, for which, in data set [1], the EC50 is 1550 nM.
On to `Nc1nc(SCCc2ccccc2)nc2ccccc12`, for which, in data set [1], the EC50 turned out to be 1100 nM.
Still for that read-out and setting: for `CSc1nc(N)c2c(C)c(C)sc2n1` the value was 1310 nM.
The same measure, in the same setting: for `CCSc1nc(N)c2c(C)c(C)sc2n1` the value was 4590 nM; for `CCOC(=O)CSc1nc(N)c2c3c(sc2n1)CN(Cc1ccccc1)CC3`, 640 nM.
For `CCOC(=O)CSc1nc(N)c2c(C)c(C)sc2n1`, in data set [1], the EC50 worked out at 900 nM. In addition, the Activity result in data set [2] is on record as “Not Active”; in data set [3] it was “Active”; in data set [4], “Active”.
With `Cc1sc2nc(SCCc3ccccc3)nc(N)c2c1C`, the EC50 in data set [1] stood at 2250 nM. For the same compound, the Activity result in data set [2] is on record as “Not Active”; in data set [3], “Active”; in data set [4] it was “Active”.
Turning to `CSc1nc(N)c2c3c(sc2n1)CCCC3`, in data set [1], the EC50 is 2650 nM.
On the same count and under the same terms, for `CCSc1nc(N)c2c3c(sc2n1)CCCC3` the value was 460 nM; for `Nc1nc(SC(C(=O)O)c2ccccc2)nc2sc3c(c12)CCCC3` (centres undefined), more than 100000 nM.
On the same count and under the same terms, under `CCOC(=O)CSc1nc(N)c2c3c(sc2n1)CCC3` stands 4150 nM.
On the same count and under the same terms, for `Nc1nc(SCCc2ccccc2)nc2sc3c(c12)CCC3` the value was 970 nM; for `COc1cc2nc(SCCc3ccccc3)nc(N)c2cc1OC`, 1520 nM; for `CCOC(=O)CSc1nc(N)c2cc(OC)c(OC)cc2n1`, 1210 nM.
Consider `Cc1sc2nc(SC(C(=O)O)c3ccccc3)nc(N)c2c1C` (centres undefined), for which the EC50 in data set [1] is more than 100000 nM.
On to `Nc1nc(SCCc2ccccc2)nc2sc3c(c12)CCOC3`, for which, in data set [1], the EC50 turned out to be 560 nM.
Take `Nc1nc(SCCc2ccccc2)nc2sc3c(c12)CCCC3`: the EC50 in data set [1] amounted to 1020 nM. Further, the Activity result in data set [2] is recorded as “Not Active”; in data set [3] it was “Active”; in data set [4], “Active”.
As for `CCOC(=O)CSc1nc(N)c2ccccc2n1`, in data set [1], the EC50 amounted to 3980 nM.
